Measured values published in paper PMC4129108, “The natural triterpene 3β,6β,16β-trihydroxy-lup-20(29)-ene obtained from the flowers of Combretum leprosum induces apoptosis in MCF-7 breast cancer cells” (BMC Complementary and Alternative Medicine, 2014).
Values after ≈ are worked out from the molar mass of the structure shown.

Columns and labels:
[1] = tested on: S. cerevisiae EG103 (SOD-WT); assay: Yeast survival assay, EG103 (SOD-WT); format: cell-based, Saccharomyces cerevisiae; settings: positive control H2O2 5 mM, 1 h in PBS
Procedure: (§1) Media, solutions and buffers were prepared according to Burke et al.. YPD medium (0.5% yeast extract, 2% peptone, 2% glucose) was used for routine growth. Synthetic medium SC (0.67% yeast nitrogen base, 0.1% ammonium sulfate, 2% glucose) supplemented with the appropriate amino acids and bases ([…]) was used for the detection of mutations.
(§2) Stationary phase (STAT) cultures were obtained by inoculation of a single colony into liquid YPD. We chose to work in the stationary phase of growth because this resembles most cells of multicellular organisms in important aspects: (i) most energy comes from mitochondrial respiration; (ii) the cells have left the active cell cycle and have entered the Go phase; and (iii) damage accumulates over time.
(§3) STAT cells (1 × 10^8 cells/mL) were exposed to TTHL (10–500 μg/mL) and incubated under growth conditions for 1 h in PBS at 30°C. Cells were then washed and treated with H2O2 (5 mM) in PBS for another hour. Suitable aliquots were plated in triplicate on solid YPD (2–3 days, 30°C) and colony-forming units were counted. Sensitivity was expressed as a percentage of survival in relation to the negative control (solvent).

[2] = tested on: S. cerevisiae EG118 (sod1Δ); assay: Yeast survival assay, EG118 (sod1Δ); format: cell-based, Saccharomyces cerevisiae; settings: positive control H2O2 5 mM, 1 h in PBS
Procedure: as §1, §2, §3

[3] = tested on: S. cerevisiae EG110 (sod2Δ); assay: Yeast survival assay, EG110 (sod2Δ); format: cell-based, Saccharomyces cerevisiae; settings: positive control H2O2 5 mM, 1 h in PBS
Procedure: as §1, §2, §3

[4] = tested on: S. cerevisiae EG133 (sod1Δsod2Δ); assay: Yeast survival assay, EG133 (sod1Δsod2Δ); format: cell-based, Saccharomyces cerevisiae; settings: positive control H2O2 5 mM, 1 h in PBS
Procedure: as §1, §2, §3

[5] = tested on: MRC5 (lung normal fibroblast); assay: XTT cell viability assay, MRC5 normal fibroblasts; format: cell-based; settings: Homo sapiens, MRC5, 24 h treatment
Procedure: (§4) The human cell lines MCF-7 (breast adenocarcinoma), HepG2 (hepatoma), T24 (bladder cancer), CACO-2 (colorectal adenocarcinoma) and MRC5 (lung normal fibroblast) were obtained from the Rio de Janeiro Cell Bank (Rio de Janeiro, RJ, Brazil). The HCT116 cell (colorectal carcinoma), and HT29 cell (colorectal adenocarcinoma) were kindly provided by Dr. Annette K. Larsen (Institut National de la Santé et de la Recherche Médicale - INSERM, Paris, França). All cell lines except MCF-7 were grown in DMEM supplemented with 10% or 20% (for CACO-2) FBS, 100 units.mL^-1 penicillin and 100 μg.mL^-1 streptomycin at 37°C in a humidified atmosphere of 5% CO2. MCF-7 cells were maintained in RPMI-1640 supplemented with 20% FBS at the same conditions described above.
(§5) The cytotoxic potential of the TTHL was evaluated by the XTT assay in human tumor cell lines as well as in MRC5 normal fibroblasts. Cells (1 × 10^4 cells) were seeded on 96-well plates in growth medium and incubated overnight. Afterwards, TTHL (0.5, 1.0, 2.5, 5.0, and 10 μg/mL) was added to each well and incubated for 24, 48, 72, and 120 h. Mitoxantrone, a cytostatic anthracenedione that intercalates in DNA and increases the incidence of double-strand breaks by stabilizing the cleavable complex of topoisomerase II and DNA, was used as positive control. At the end of each treatment, cell viability was assessed according to the manufacturer’s instructions. Briefly, after discarding the medium, 1 mL of XTT labeling mixture was added to the cells and incubated for 2 h at 37°C. Absorbance was measured with a SpectraMax reader (Bio-Rad, USA) at a test wavelength of 492 nm (A492) and a reference wavelength of 690 nm (A690). The final result corresponds to A492-A690. The absorbance of negative control cells was set as 100% viability, and the values for treated cells were calculated as a percentage of the control.
(§6) The IC20, IC50, and IC80 values and their 95% confidence intervals (CI 95%) were obtained by nonlinear regression using GraphPad Prism v5 program (Intuitive Software for Science, San Diego, CA, USA). Selective index (SI) was calculated by IC50 in MRC5 cells/IC50 in tumoral cells. All experiments were independently repeated at least three times, with triplicate samples for each treatment. Results are expressed as means ± standard deviation (SD). Data were analyzed by one-way analysis of variance (ANOVA), and means were compared using Tukey test, with P ≤ 0.05 considered as statistically significant.

[6] = tested on: MCF-7 (breast adenocarcinoma); assay: XTT cell viability assay, MCF-7; format: cell-based, human; settings: Homo sapiens, MCF7; MCF-7, 24 h treatment, XTT
Procedure: as §4, §5, §6

[7] = tested on: HepG2 (hepatoma); assay: XTT cell viability assay, HepG2; format: cell-based, human; settings: Homo sapiens; HepG2, 24 h treatment, XTT
Procedure: as §4, §5, §6

[8] = tested on: T24 (bladder cancer); assay: XTT cell viability assay, T24; format: cell-based, human; settings: Homo sapiens; T24, 24 h treatment, XTT
Procedure: as §4, §5, §6

[9] = tested on: HCT116 cell (colorectal carcinoma); assay: XTT cell viability assay, HCT116; format: cell-based, human; settings: Homo sapiens, HCT-116; HCT116, 24 h treatment, XTT
Procedure: as §4, §5, §6

[10] = tested on: HT29 cell (colorectal adenocarcinoma); assay: XTT cell viability assay, HT29; format: cell-based, human; settings: Homo sapiens, HT-29; HT29, 24 h treatment, XTT
Procedure: as §4, §5, §6

[11] = tested on: CACO-2 (colorectal adenocarcinoma); assay: XTT cell viability assay, CACO-2; format: cell-based, human; settings: Homo sapiens; CACO-2, 24 h treatment, XTT
Procedure: as §4, §5, §6

[12] = tested on: tumor cell lines; assay: XTT cell viability assay, panel of tumor cell lines; format: cell-based; settings: Homo sapiens, read-out: IC50 values in tumor cell lines (range over the panel)
Procedure: as §4
The cytotoxic potential of the TTHL was evaluated by the XTT assay in human tumor cell lines as well as in MRC5 normal fibroblasts. Cells (1 × 10^4 cells) were seeded on 96-well plates in growth medium and incubated overnight. […] At the end of each treatment, cell viability was assessed according to the manufacturer’s instructions. […] Absorbance was measured with a SpectraMax reader (Bio-Rad, USA) at a test wavelength of 492 nm (A492) and a reference wavelength of 690 nm (A690). […] The absorbance of negative control cells was set as 100% viability, and the values for treated cells were calculated as a percentage of the control. […]

Compound: OO [H2O2, hydrogen peroxide, reference compound]
- survival (percentage in relation to negative control) [1]: 63.03 ± 4.12%
- survival (percentage in relation to negative control) [2]: 16.27 ± 4.88%
- survival (percentage in relation to negative control) [3]: 19.10 ± 4.03%
- survival (percentage in relation to negative control) [4]: 19.33 ± 2.10%

Compound: O=C1c2c(O)ccc(O)c2C(=O)c2c(NCCNCCO)ccc(NCCNCCO)c21 [MXT, mitoxantrone, reference compound]
- IC50 [5]: 2.88 ± 1.44 µg/mL (≈ 6.48 µM)
- IC50 [6]: 0.87 ± 1.59 µg/mL (≈ 1.96 µM)
- IC50 [7]: 3.5 ± 0.39 µg/mL (≈ 7.87 µM)
- IC50 [8]: 2.5 ± 0.62 µg/mL (≈ 5.62 µM)
- IC50 [9]: 0.61 ± 0.67 µg/mL (≈ 1.37 µM)
- IC50 [10]: 0.88 ± 2.33 µg/mL (≈ 1.98 µM)
- IC50 [11]: 2.4 ± 1.81 µg/mL (≈ 5.4 µM)
- IC50 [12]: 0.61 to 3.5 µg/mL (≈ 1.37 to 7.87 µM)
